Measured values reported in patent publication US8673884B2 (priority 2008, dated 2014).

Legend:
[1] = tested on: Avian influenza H5N1 virus, A/Vietnam/1203/04; format: cell-based
[2] = tested on: human influenza H1N1 virus, A/HK/54/98; format: cell-based
H5N1 virus = format: cell-based, influenza A H5N1 virus
H1N1 virus = format: cell-based, influenza A H1N1 virus
dihydrofolic reductase = target: T1, dihydrofolic reductase (Homo sapiens, UniProt P00374); conditions: Baker and Jordaan, J. Med. Chem. 1965; cited from earlier work
T1 sequence (P00374 1-187): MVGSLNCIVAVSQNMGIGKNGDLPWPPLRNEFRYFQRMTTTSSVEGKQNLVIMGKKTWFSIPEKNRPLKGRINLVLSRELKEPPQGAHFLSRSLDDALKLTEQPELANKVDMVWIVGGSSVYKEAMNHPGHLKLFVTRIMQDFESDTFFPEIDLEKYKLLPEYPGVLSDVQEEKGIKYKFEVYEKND

[3] = tested on: Primary human blood macrophages; assay: Cell viability test (MTT); conditions: 100 uM
MDCK cells = assay: Cell viability test (MTT); conditions: 100 uM

Structure (SMILES) | inhibition of replication of H5N1 virus (in words) [1] | inhibition of replication of H1N1 virus (in words) [2] | level of H5N1 viruses on the surface of MDCK cells (H5N1 virus) | level of H1N1 viruses on the surface of MDCK cells (H1N1 virus) | inhibition of dihydrofolic reductase (dihydrofolic reductase) | degree of cytotoxicity (MTT, OD560-OD670 of sample / DMSO) ([3]; 72 hours, primary human blood macrophages, relative to DMSO) | cytotoxicity (in words) ([3]; primary macrophages, compared with DMSO) | degree of cytotoxicity (MTT, OD560-OD670 of sample / DMSO) (MDCK cells; 72 hours, relative to DMSO) | cytotoxicity (in words) (MDCK cells; compared with DMSO) | H5N1 virus titer [1]
Cc1nc(N)nc(O)c1CCCNc1ccc(/C=C/C(=O)CCl)cc1 [NSC#89853, 4-(4-((3-(2-amino-4-hydroxy-6-methyl-5-pyrimidinyl)propyl)amino)phenyl)-1-chloro-3-buten-2-one] | inhibits the replication | inhibits the replication | lower | lower | inhibitor | 1.1 | does not display cytotoxicity | 2.2 | does not display cytotoxicity | –
CCOC(=O)C1=C[C@@H](OC(CC)CC)[C@H](NC(C)=O)[C@@H](N)C1 [oseltamivir, reference compound] | – | – | lower | lower | – | – | – | – | – | 2.46 × 10^6 TCID50/ml
